Experimental data: article PMC11091072, “Targeting bacterial nickel transport with aspergillomarasmine A suppresses virulence-associated Ni-dependent enzymes” (Nature Communications, 2024)
Several values for one entry are separate records, joined by “and”; a condition that tells them apart may be missing. Equal values may be shown once. Entries after “also recorded” stand apart in the source; their conditions may differ.

Key:
[1] = Competitive ITC of AMA, Zn2+ and Ni2+ (Ni2+ affinity of AMA); assay type: binding; conditions: competition ITC, 25 mM Tris-HCl, 150 mM NaCl, pH 7.5, 37 °C; estimated; read-out: KD for Ni^2+
NikA = NikA (Klebsiella pneumoniae, UniProt A6TFA3); assay type: cell-based; conditions: 250 μM
Sequence of NikA (A6TFA3 entry or part of it): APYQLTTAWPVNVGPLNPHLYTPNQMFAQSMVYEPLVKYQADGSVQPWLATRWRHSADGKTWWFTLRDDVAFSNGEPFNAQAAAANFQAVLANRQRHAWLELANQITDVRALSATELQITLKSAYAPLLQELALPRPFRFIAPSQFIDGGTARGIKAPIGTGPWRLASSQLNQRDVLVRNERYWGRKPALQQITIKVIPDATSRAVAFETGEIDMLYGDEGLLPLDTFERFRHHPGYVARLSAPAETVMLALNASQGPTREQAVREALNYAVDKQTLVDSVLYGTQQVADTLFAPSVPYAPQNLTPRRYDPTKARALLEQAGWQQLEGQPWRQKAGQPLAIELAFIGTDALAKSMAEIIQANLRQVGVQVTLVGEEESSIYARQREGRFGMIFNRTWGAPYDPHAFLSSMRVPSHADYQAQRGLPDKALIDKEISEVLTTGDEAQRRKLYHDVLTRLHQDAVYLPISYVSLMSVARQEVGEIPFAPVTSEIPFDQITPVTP

[2] = system: K. pneumoniae urease activity (whole cell); assay: Checkerboard analysis of Zn-AMA and AHA on urease activity; assay type: cell-based, Klebsiella pneumoniae
Method: To guide our exploration of the mode of action of Zn-AMA, we investigated whether a chemical-chemical interaction occurs with the urease inhibitor AHA. […] We subsequently performed inductively coupled plasma mass spectrometry (ICP-MS) analyses to evaluate the intracellular Ni^2+ and Zn^2+ content of K. pneumoniae.
K. pneumoniae whole-cell urease activity was determined with artificial urine containing 0.2% (w/v) casamino acids and 0.01% (w/v) phenol red in 96-well plates. For the growth of S. aureus in artificial urine, the medium was supplemented with 10% LB. After 20–24 hours of growth, bacteria were removed using 0.45 μm filter plates, and the final A550 of the medium was measured using a plate reader.
FIG S7 Evaluation of Zn-AMA as a direct inhibitor of urease. A) Checkerboard analysis of Zn-AMA and AHA on urease activity of K.
pneumoniae after growth for 24 h at 37 °C artificial urine. pH is represented by the color scale determined with phenol red. […]

S. aureus USA300 = assay: Galleria mellonella infection model; assay type: in vivo; conditions: for survival curve event per larva: S. aureus + 7.5 μg/mL Zn-AMA, one cell per larva
Method: (§1) The cell suspensions were mixed at an equal volume of 300 μg/mL Zn-AMA before injection. The larvae were each injected with 10 μL ([…]) of bacterial suspension with and without Zn-AMA or PBS. Ten larvae were used per group, incubated at 30 °C, and monitored on a 24-hour cycle. Fresh G. mellonella larvae were obtained from The Dragon Lair (www.thedragonlair.ca).

K. pneumoniae ATCC 33495 = assay: Galleria mellonella infection model; assay type: in vivo; conditions: for survival curve event per larva: K. pneumoniae + 7.5 μg/mL Zn-AMA, one cell per larva
Method: as §1

[3] = system: S. aureus USA300 ureC::tn; assay: Galleria mellonella infection model; assay type: in vivo; conditions: for survival curve event per larva: S. aureus ureC::Tn + 7.5 μg/mL Zn-AMA, one cell per larva
Method: as §1

N[C@@H](CN[C@@H](CN[C@@H](CC(=O)O)C(=O)O)C(=O)O)C(=O)O [AMA, aspergillomarasmine A]
Kd [1]: ~0.08 nM and 0.08 nM
NikA thermal stability in cells (CETSA) (NikA): barely detectable at 60 °C

N[C@@H](CN[C@@H](CN[C@@H](CC(=O)O)C(=O)O)C(=O)O)C(=O)O.[Zn+2] [Zn-AMA]
Urease-dependent pH change (pH) ([2]; Zn-AMA 0.39 μM, AHA 0 mM): 8.26
Urease-dependent pH change (pH) ([2]; Zn-AMA 0.39 μM, AHA 0.1 mM): 8.14
Urease-dependent pH change (pH) ([2]; Zn-AMA 0.39 μM, AHA 0.2 mM): 8.05
Urease-dependent pH change (pH) ([2]; Zn-AMA 0.39 μM, AHA 0.4 mM): 7.76
Urease-dependent pH change (pH) ([2]; Zn-AMA 0.39 μM, AHA 0.5 mM): 8.22
Urease-dependent pH change (pH) ([2]; Zn-AMA 0.39 μM, AHA 0.8 mM): 7.29
Urease-dependent pH change (pH) ([2]; Zn-AMA 0.39 μM, AHA 1.6 mM): 6.70
Urease-dependent pH change (pH) ([2]; Zn-AMA 0.78 μM, AHA 0 mM): 8.08
Urease-dependent pH change (pH) ([2]; Zn-AMA 0.78 μM, AHA 0.1 mM): 7.95
Urease-dependent pH change (pH) ([2]; Zn-AMA 0.78 μM, AHA 0.2 mM): 7.81
Urease-dependent pH change (pH) ([2]; Zn-AMA 0.78 μM, AHA 0.4 mM): 7.50
Urease-dependent pH change (pH) ([2]; Zn-AMA 0.78 μM, AHA 0.5 mM): 8.01
Urease-dependent pH change (pH) ([2]; Zn-AMA 0.78 μM, AHA 0.8 mM): 7.03
Urease-dependent pH change (pH) ([2]; Zn-AMA 0.78 μM, AHA 1.6 mM): 6.68
Urease-dependent pH change (pH) ([2]; Zn-AMA 1.56 μM, AHA 0 mM): 7.83
Urease-dependent pH change (pH) ([2]; Zn-AMA 1.56 μM, AHA 0.1 mM): 7.46
Urease-dependent pH change (pH) ([2]; Zn-AMA 1.56 μM, AHA 0.2 mM): 7.19
Urease-dependent pH change (pH) ([2]; Zn-AMA 1.56 μM, AHA 0.4 mM): 6.86
Urease-dependent pH change (pH) ([2]; Zn-AMA 1.56 μM, AHA 0.5 mM): 7.51
Urease-dependent pH change (pH) ([2]; Zn-AMA 1.56 μM, AHA 0.8 mM): 6.64
Urease-dependent pH change (pH) ([2]; Zn-AMA 1.56 μM, AHA 1.6 mM): 6.51
Urease-dependent pH change (pH) ([2]; Zn-AMA 3.12 μM, AHA 0 mM): 7.23
Urease-dependent pH change (pH) ([2]; Zn-AMA 3.12 μM, AHA 0.1 mM): 6.85
Urease-dependent pH change (pH) ([2]; Zn-AMA 3.12 μM, AHA 0.2 mM): 6.78
Urease-dependent pH change (pH) ([2]; Zn-AMA 3.12 μM, AHA 0.4 mM): 6.74
Urease-dependent pH change (pH) ([2]; Zn-AMA 3.12 μM, AHA 0.5 mM): 6.97
Urease-dependent pH change (pH) ([2]; Zn-AMA 3.12 μM, AHA 0.8 mM): 6.56
Urease-dependent pH change (pH) ([2]; Zn-AMA 3.12 μM, AHA 1.6 mM): 6.46
Urease-dependent pH change (pH) ([2]; Zn-AMA 6.25 μM, AHA 0 mM): 6.63
Urease-dependent pH change (pH) ([2]; Zn-AMA 6.25 μM, AHA 0.1 mM): 6.57
Urease-dependent pH change (pH) ([2]; Zn-AMA 6.25 μM, AHA 0.2 mM): 6.55
Urease-dependent pH change (pH) ([2]; Zn-AMA 6.25 μM, AHA 0.4 mM): 6.53
Urease-dependent pH change (pH) ([2]; Zn-AMA 6.25 μM, AHA 0.5 mM): 6.62
Urease-dependent pH change (pH) ([2]; Zn-AMA 6.25 μM, AHA 0.8 mM): 6.47
Urease-dependent pH change (pH) ([2]; Zn-AMA 6.25 μM, AHA 1.6 mM): 6.42
Urease-dependent pH change (pH) ([2]; Zn-AMA 12.5 μM, AHA 0 mM): 6.63
Urease-dependent pH change (pH) ([2]; Zn-AMA 12.5 μM, AHA 0.1 mM): 6.46
Urease-dependent pH change (pH) ([2]; Zn-AMA 12.5 μM, AHA 0.2 mM): 6.52
Urease-dependent pH change (pH) ([2]; Zn-AMA 12.5 μM, AHA 0.4 mM): 6.45
Urease-dependent pH change (pH) ([2]; Zn-AMA 12.5 μM, AHA 0.5 mM): 6.47
Urease-dependent pH change (pH) ([2]; Zn-AMA 12.5 μM, AHA 0.8 mM): 6.43
Urease-dependent pH change (pH) ([2]; Zn-AMA 12.5 μM, AHA 1.6 mM): 6.40
interaction with AHA (checkerboard) ([2]; combination of Zn-AMA and AHA): synergistic
survival curve event per larva (S. aureus USA300; day 1 post infection): 1
survival curve event per larva (S. aureus USA300; day 2 post infection): 1
survival curve event per larva (S. aureus USA300; day 3 post infection): 1
survival curve event per larva (S. aureus USA300; day 5 post infection): 1
survival curve event per larva (S. aureus USA300; day 7 post infection): 0
G. mellonella larvae survival (S. aureus USA300; S. aureus USA300 infection, 7.5 mg/kg, seven days): significantly enhance the survival; also recorded: effective monotherapy
survival curve event per larva (K. pneumoniae ATCC 33495; day 1 post infection): 1
survival curve event per larva (K. pneumoniae ATCC 33495; day 2 post infection): 1
survival curve event per larva (K. pneumoniae ATCC 33495; day 3 post infection): 1
survival curve event per larva (K. pneumoniae ATCC 33495; day 5 post infection): 1
G. mellonella larvae survival (K. pneumoniae ATCC 33495; K. pneumoniae infection, 7.5 mg/kg, seven days): significantly enhance the survival; also recorded: effective monotherapy
G. mellonella larvae survival ([3]; S. aureus USA300 ureC::tn infection, 7.5 mg/kg): no effect on the survival; also recorded: no significant survival benefit
survival curve event per larva ([3]; day 1 post infection): 1
survival curve event per larva ([3]; day 2 post infection): 1
survival curve event per larva ([3]; day 3 post infection): 1
survival curve event per larva ([3]; day 5 post infection): 1
